The record followed here is patent US6653081B2, “Methods for monitoring antiretroviral therapy and guiding therapeutic decision in the treatment of HIV/AIDS” (ViroLogic, Inc., priority 2000, dated 2003).

Experiment [1] concerns RTV-K103N/I135T/V245T. The experiment in a line: Phenotypic susceptibility assay, RTV-K103N/I135T/V245T. It is filed as cell-based, HIV-1. The note with it: site-directed K103N + I135T + V245T. An excerpt: (§1) The resistance test vectors containing a functional luciferase gene cassette were constructed and host cells were transfected with the resistance test vector DNA. The resistant test vectors contained patient-derived reverse transcriptase and protease sequences that were either susceptible or resistant to the antiretroviral agents, such as nucleoside reverse transcriptase inhibitors, (NRTIs) non-nucleoside reverse transcriptase inhibitors […] protease inhibitors. The resistance test vector viral particles produced by transfecting the resistance test vector DNA into host cells, either in the presence or absence of PRIs, were used to infect target host cells grown either in the absence of NRTIs or NNRTIs, or in the presence of increasing concentrations of the drug. The amount of luciferase activity produced in infected target host cells in the presence of varying concentrations of drug was compared to the amount of luciferase produced in infected target host cells in the absence of drug. “Drug resistance” was measured as the amount of drug required to inhibit by 50% the luciferase activity detected in the absence of drug (inhibitory concentration 50%, IC50). The IC50 values were determined by plotting percent drug inhibition vs. log10 drug concentration. Stimulation of viral replication was measured as the percent increase in luciferase activity detected when infection occurs in the presence of drug as compared to in the absence of drug.
(§2) Host cells were seeded in 10-cm-diameter dishes and were transfected several days after plating with resistance test vector plasmid DNA and the envelope expression vector. Transfections were performed using a calcium-phosphate precipitation procedure. The cell culture media containing the DNA precipitate was replaced with fresh medium, from one to 24 hours, after transfection. Cell culture media containing resistance test vector viral particles was harvested one to four days after transfection and was passed through a […] filter before being used to infect target host cells, or being stored at −80° C. HIV capsid protein (p24) levels in the harvested cell culture media were determined by an EIA method as described by the manufacturer (SAIC; Frederick, Md.). Before infection, target cells (293 and 293/T) were plated in cell culture media. Control infections were performed using cell culture media from mock transfections (no DNA) or transfections containing the resistance test vector plasmid DNA without the envelope expression plasmid. One to three or more days after infection, the media was removed and cell lysis buffer (Promega) was added to each well. Cell lysates were assayed for luciferase activity (FIG. 3). The inhibitory effect of the drug was determined using the following equation:
(§3) % luciferase inhibition=1−(RLUluc[drug]÷RLUluc)×100
(§4) where RLUluc [drug] is the Relative Light Unit of luciferase activity in infected cells in the presence of drug, and RLUluc is the Relative Light Unit of luciferase activity in infected cells in the absence of drug. IC50values were obtained from the sigmoidal curves that were generated from the data by plotting the percent inhibition of luciferase activity vs. the log10 drug concentration. The percent luciferase stimulation is the negative of the % inhibition calculated using the formula above.
A resistance test vector containing three mutations, K103N, I135T and V245T (RTV-K103N/I135T/V245T) was constructed and tested in the phenotypic assay described earlier. The results were compared to those determined using a genetically defined resistance test vector that was wild type at positions 103, 135 and 245. We determined the pattern of phenotypic susceptibility to the NNRTIs, delavirdine, nevirapine and efavirenz, in RTV-K103N.

In experiment [2] the test system is K103N/M230L-RTV. Kind of experiment: Phenotypic susceptibility assay, K103N/M230L-RTV. It is filed as cell-based, HIV-1. The note with it: site-directed K103N + M230L.
Description: as §1, §2, §3, §4
The M230L mutation was tested alone and is described in Example 3 above. A resistance test vector containing the M230L mutation and the K103N mutation (K103N/M230L-RTV) was constructed and tested using the phenotypic assay described earlier, and the results were compared to those determined using a genetically defined resistance test vector that was wild type at positions 103 and 230. We determined the pattern of phenotypic susceptibility to the NNRTIs, delavirdine, nevirapine and efavirenz, in the K103N/M230L-RTV. […]

The test system of experiment [3] is RTV-005738. The experiment in a line: Phenotypic susceptibility assay, RTV-005738. It counts as cell-based, HIV. As to conditions: patient 005738; for decrease in susceptibility: V245E with multiple other mutations.
Description: as §1, §2, §3, §4
A resistance test vector was constructed as described in Example 1 from a virus sample obtained from patient 005738. The prior and current treatment regimens are unknown. Isolation of viral RNA and RT/PCR was used to generate a patient derived segment (PDS) that comprised viral sequences coding for all of PR and aa 1-313 of RT […]. The PDS were inserted into an indicator gene viral vector to generate a resistance test vector designated RTV-005738. RTV-005738 was then tested in a phenotypic assay to determine accurately and quantitatively the level of susceptibility to a panel of anti-retroviral drugs. […]

In experiment [4] the test system is RTV-1033-3/283L/284R/286T. Kind of experiment: Phenotypic susceptibility assay, RTV-1033-3/283L/284R/286T. It is filed as cell-based, HIV. The note with it: RTV-1033-3 with L283I, R284K and T286A reverted.
Description: as §1, §2, §3, §4
A resistance test vector containing all of the mutations present in RTV-1033-3 except for L283I, R284K and T286A (RTV-1033-3/283L/284R/286T) was constructed and tested using the phenotypic assay described earlier. The results were compared to those determined using the parent RTV-1033-3. We determined the pattern of phenotypic susceptibility to the NNRTIs, delavirdine, nevirapine and efavirenz, in the reverted vector, RTV-1033-3/283L/284R/286T.

Experiment [5] deals with RTV-010829/270I. Kind of experiment: Phenotypic susceptibility assay, RTV-010829/270I. It is filed as cell-based, HIV. As to conditions: RTV-010829 with I270M reverted.
Description: as §1, §2, §3, §4
A resistance test vector containing all of the mutations present in RTV-010829 except for the V245E mutation (RTV-010829/245V) was constructed and tested using the phenotypic assay described earlier. The results were compared to those determined using the parent RTV-010829. We determined the pattern of phenotypic susceptibility to the NNRTIs, delavirdine, nevirapine and efavirenz, in the reverted vector RTV-010829/245V. […] A resistance test vector containing all of the mutations present in RTV-010829 except for the I270M (RTV-010829/270I) was constructed and tested using the phenotypic assay described earlier. […]

The subject of experiment [6] is RTV-1033-3/227F. Kind of experiment: Phenotypic susceptibility assay, RTV-1033-3/227F. It is filed as cell-based, HIV. As to conditions: RTV-1033-3 with F227L reverted.
Description: as §1, §2, §3, §4
A resistance test vector containing all of the mutations present in RTV-1033-3 except for F227L (RTV-1033-3/227F) was constructed and tested using the phenotypic assay described earlier. The results were compared to those determined using the parent RTV-1033-3. We determined the pattern of phenotypic susceptibility to the NNRTIs, delavirdine, nevirapine and efavirenz, in the reverted vector, RTV-1033-3/227F.

Where “and” joins values, the source holds several entries; their conditions need not be identical. Identical values can stand only once. Some results are limits rather than exact numbers.

On to `CC(C)Nc1cccnc1N1CCN(C(=O)c2cc3cc(NS(C)(=O)=O)ccc3[nH]2)CC1` [delavirdine], for which the “drug-dependent stimulation of viral replication” value (from here on “drug-dependent stimulation”) in experiment [1] is given as roughly 50%; in experiment [2], roughly 100%; in experiment [3] it was roughly 40%; in experiment [4], roughly 40%; in experiment [5], roughly 40%; in experiment [6], roughly 100%. Further, the “reductions in susceptibility compared to wild type control RTV” value (“reductions in susceptibility” for short) in experiment [1] is greater than 250 fold; in experiment [4], 7 fold; in experiment [5], 247 fold; in experiment [6], 72 fold. Also, the “reduction in susceptibility compared to wild type control RTV” value (“reduction in susceptibility” for short) in experiment [2] is greater than 250 fold. In experiment [3], this compound displayed a decrease in susceptibility of 63 fold.
In the case of `O=C1Nc2ccc(Cl)cc2[C@@](C#CC2CC2)(C(F)(F)F)O1` [efavirenz], the “drug-dependent stimulation” value in experiment [1] is listed as roughly 25%; in experiment [2], roughly 40%; in experiment [3] it was roughly 20%; in experiment [4], roughly 30%; in experiment [5] it was roughly 20%; in experiment [6], roughly 100%. In addition, the “reductions in susceptibility” value is reported as 174 fold in experiment [1], 85 fold in experiment [4], 145 fold in experiment [5] and 18 fold in experiment [6]. For the same compound, the “reduction in susceptibility” value in experiment [2] is on record as greater than 470 fold. In experiment [3], this compound displayed a decrease in susceptibility of 17 fold.
`Cc1ccnc2c1NC(=O)c1cccnc1N2C1CC1` [nevirapine]: the “drug-dependent stimulation” value in experiment [1] was roughly 40%; in experiment [2], roughly 70%; in experiment [3] it was roughly 20%; in experiment [4] it was roughly 80%; in experiment [5], roughly 30%; in experiment [6], roughly 120%. The “reductions in susceptibility” value was 594 fold and 544 fold in experiment [1]; greater than 600 fold in experiment [4]; 341 fold in experiment [5]; greater than 600 fold in experiment [6]. The “reduction in susceptibility” value in experiment [2] is reported as greater than 600 fold. In addition, the decrease in susceptibility in experiment [3] is listed as greater than 600 fold.
